Source: patent US8329645B2, “Polymyxin derivatives and uses thereof” (priority 2008, dated 2012)
Values after ≈ are worked out from the molar mass of the structure shown. Read-outs that look alike come from different tables or passages of the source. Where a SMILES comes first, the peptide text is derived from it. Bridges are numbered along the chain shown (N, C = ends). [ ]: non-standard residue; d: D form. The star is where a group is joined. Decanoyl = CCCCCCCCCC(=O)*; Dab = NCC[C@H](N)C(=O)O

Columns and labels:
A. baumannii ATCC 19606 = tested on: A. baumannii ATCC 19606
Method: (§1) Polymyxin B sulfate (Sigma-Aldrich, St. Louis, Mo., USA) was used as a control. […] The bacterial test strains originated from ATCC (10 strains), CCUG (11 strains), and NCTC (3 strains). Fourteen (14) strains (the F-strains) were purchased from Mobidiag Ltd., Helsinki, Finland.
(§2) The inocula were prepared by adjusting the bacterial suspensions to a density equivalent to OD546 nm˜0.3 (˜10^8 CFU/ml˜0.5 McFarland) the yeast suspension to a density equivalent to OD546 nm˜0.75 (˜2×10^7 CFU/ml)._The suspensions were diluted to 10^7 CFU/ml. The plates were inoculated by using a Denley Multipoint Inoculator, 1 μl per spot corresponding to approx. 10^4 CFU/spot. Plates were incubated for 16-20 hours at 35° C.

A. baumannii F263 = tested on: A. baumannii F263
Method: as §1, §2

A. baumannii F264 = tested on: A. baumannii F264
Method: as §1, §2

C. freundii ATCC 8090 = tested on: C. freundii ATCC 8090
Method: as §1, §2

E. cloacae ATCC 23355 = tested on: E. cloacae ATCC 23355
Method: as §1, §2

E. cloacae CCUG 52947 = tested on: E. cloacae CCUG 52947
Method: as §1, §2

E. cloacae F230 = tested on: E. cloacae F230
Method: as §1, §2

E. cloacae F231 = tested on: E. cloacae F231
Method: as §1, §2

E. cloacae F232 = tested on: E. cloacae F232
Method: as §1, §2

E. coli ATCC 25922 = tested on: E. coli ATCC 25922
Method: as §1, §2

E. coli CCUG 41422 = tested on: E. coli CCUG 41422
Method: as §1, §2

E. coli CCUG 41424 = tested on: E. coli CCUG 41424
Method: as §1, §2

E. coli CCUG 41425 = tested on: E. coli CCUG 41425
Method: as §1, §2

E. coli CCUG 41427 = tested on: E. coli CCUG 41427
Method: as §1, §2

E. coli CCUG 41429 = tested on: E. coli CCUG 41429
Method: as §1, §2

E. coli CCUG 41432 = tested on: E. coli CCUG 41432
Method: as §1, §2

E. coli F10 = tested on: E. coli F10
Method: as §1, §2

E. coli F19 = tested on: E. coli F19
Method: as §1, §2

E. coli F8 = tested on: E. coli F8
Method: as §1, §2

E. coli F9 = tested on: E. coli F9
Method: as §1, §2

E. coli IH3080 = tested on: E. coli IH3080
Method: as §1, §2

E. coli NCTC 13351 = tested on: E. coli NCTC 13351
Method: as §1, §2

E. coli NCTC 13352 = tested on: E. coli NCTC 13352
Method: as §1, §2

E. coli NCTC 13353 = tested on: E. coli NCTC 13353
Method: as §1, §2

K. oxytoca ATCC 13182 = tested on: K. oxytoca ATCC 13182
Method: as §1, §2

K. oxytoca CCUG 51683 = tested on: K. oxytoca CCUG 51683
Method: as §1, §2

K. pneumoniae ATCC 13883 = tested on: K. pneumoniae ATCC 13883
Method: as §1, §2

K. pneumoniae CCUG 45421 = tested on: K. pneumoniae CCUG 45421
Method: as §1, §2

K. pneumoniae F136 = tested on: K. pneumoniae F136
Method: as §1, §2

K. pneumoniae F144 = details: K. pneumoniae F144
Method: as §1, §2

K. pneumoniae F145 = tested on: K. pneumoniae F145
Method: as §1, §2

P. aeruginosa ATCC 27853 = tested on: P. aeruginosa ATCC 27853
Method: as §1, §2

P. aeruginosa CCUG 51971 = tested on: P. aeruginosa CCUG 51971
Method: as §1, §2

P. aeruginosa F58 = tested on: P. aeruginosa F58
Method: as §1, §2

S. aureus ATCC 25923 = tested on: S. aureus ATCC 25923
Method: as §1, §2

[1] = tested on: S. maltophilia ATCC 17444
Method: as §1, §2

S. marcescens ATCC 8100 = tested on: S. marcescens ATCC 8100
Method: as §1, §2

[2] = Two-week intravenous toxicity study in young rats; type: in vivo; details: rats, intravenously twice a day for two weeks
Method: Toxicity in young rats (weighing approx. 150 g in the beginning of the study) was determined by administering doses (1, 2, 4, 8, 16, and 32 mg/kg per day) of NAB7061 as well as the control compound polymyxin B intravenously twice (2) a day for two weeks. A group of ten (10) rats was studied for each dosage regimen. Clinical observations were made daily, the body weight measured twice weekly, and the food consumption twice weekly. In the end of week 2, all animals were sacrificed.
Histopathology of kidneys was performed for each animals and histopathology of all tissues was performed in three high-dose groups receiving NAB7061.

Work on `CCCCCCCCCC(=O)N[C@H](C(=O)N[C@H](CO)C(=O)N[C@H]1CCNC(=O)[C@H]([C@@H](C)O)NC(=O)[C@H](CCN)NC(=O)[C@H](CCN)NC(=O)[C@H](CC(C)C)NC(=O)[C@@H](Cc2ccccc2)NC(=O)[C@H](CCN)NC1=O)[C@@H](C)O` [NAB 740, DA-Thr-DSer-cy[Dab-Dab-DPhe-Leu-Dab-Dab-Thr-]] (Decanoyl-T[dS][Dab][Dab][dF]L[Dab][Dab]T; lactam 3-C) yielded an MIC (A. baumannii ATCC 19606; ATCC 19606) of 4 µg/mL (≈ 3.62 µM), an MIC (A. baumannii F263; F263) of 2 µg/mL (≈ 1.81 µM) and an MIC (A. baumannii F264; F264) of 2 µg/mL (≈ 1.81 µM). For the same compound, the MIC (C. freundii ATCC 8090; ATCC 8090) was 2 µg/mL (≈ 1.81 µM), the MIC (E. cloacae ATCC 23355; ATCC 23355) was 2 µg/mL (≈ 1.81 µM) and the MIC (E. cloacae CCUG 52947; CCUG 52947) was 2 µg/mL (≈ 1.81 µM). It also gave an MIC (E. cloacae F230; F230) of 2 µg/mL (≈ 1.81 µM), an MIC (E. cloacae F231; F231) of 2 µg/mL (≈ 1.81 µM) and an MIC (E. cloacae F232; F232) of 2 µg/mL (≈ 1.81 µM). It also gave an MIC (E. coli ATCC 25922; ATCC 25922) of 2 µg/mL (≈ 1.81 µM), an MIC (E. coli CCUG 41422) of 2 µg/mL (≈ 1.81 µM) and an MIC (E. coli CCUG 41424; CCUG 41424) of 2 µg/mL (≈ 1.81 µM). The MIC (E. coli CCUG 41425; CCUG 41425) was 2 µg/mL (≈ 1.81 µM), the MIC (E. coli CCUG 41427; CCUG 41427) was 1 µg/mL (≈ 0.906 µM) and the MIC (E. coli CCUG 41429; CCUG 41429) was 1 µg/mL (≈ 0.906 µM). For the same compound, the MIC (E. coli CCUG 41432; CCUG 41432) was 2 µg/mL (≈ 1.81 µM), the MIC (E. coli F10; F10) was 2 µg/mL (≈ 1.81 µM) and the MIC (E. coli F19; F19) was 1 µg/mL (≈ 0.906 µM). The MIC (E. coli F8; F8) was 2 µg/mL (≈ 1.81 µM), the MIC (E. coli F9; F9) was 2 µg/mL (≈ 1.81 µM) and the MIC (E. coli IH3080; IH3080) was 2 µg/mL (≈ 1.81 µM). For the same compound, the MIC (E. coli NCTC 13351; NCTC 13351) was 1 µg/mL (≈ 0.906 µM), the MIC (E. coli NCTC 13352; NCTC 13352) was 1 µg/mL (≈ 0.906 µM) and the MIC (E. coli NCTC 13353; NCTC 13353) was 2 µg/mL (≈ 1.81 µM). For the same compound, the MIC (K. oxytoca ATCC 13182; ATCC 13182) was 2 µg/mL (≈ 1.81 µM), the MIC (K. oxytoca CCUG 51683; CCUG 51683) was 2 µg/mL (≈ 1.81 µM) and the MIC (K. pneumoniae ATCC 13883; ATCC 13883) was 8 µg/mL (≈ 7.24 µM). For the same compound, the MIC (K. pneumoniae CCUG 45421; CCUG 45421) was 4 µg/mL (≈ 3.62 µM), the MIC (K. pneumoniae F136; F136) was 2 µg/mL (≈ 1.81 µM) and the MIC (K. pneumoniae F144) was 16(−4) μg/ml. For the same compound, the MIC (K. pneumoniae F145; F145) was 2 µg/mL (≈ 1.81 µM), the MIC (P. aeruginosa ATCC 27853; ATCC 27853) was 4 µg/mL (≈ 3.62 µM) and the MIC (P. aeruginosa CCUG 51971) was 8 µg/mL (≈ 7.24 µM). For the same compound, the MIC (P. aeruginosa F58; F58) was 4 µg/mL (≈ 3.62 µM), the MIC (S. aureus ATCC 25923; ATCC 25923) was greater than 32 µg/mL and the MIC ([1]; ATCC 17444) was 8 µg/mL (≈ 7.24 µM). The MIC (S. marcescens ATCC 8100; ATCC 8100) was greater than 32 µg/mL.

With Polymyxin B [reference compound] the “lowest dose that negatively influenced the body weight gain” value [2] was 1 mg/kg per day, the MIC (A. baumannii ATCC 19606; A. baumannii ATCC 19606) was 1 µg/mL and the MIC (A. baumannii F263; A. baumannii F263) was 1 µg/mL. For the same compound, the MIC (A. baumannii F264; A. baumannii F264) was 0.5 µg/mL, the MIC (C. freundii ATCC 8090; C. freundii ATCC8090) was 1 µg/mL and the MIC (E. cloacae ATCC 23355; E. cloacae ATCC23355) was 0.5 µg/mL. The MIC (E. cloacae CCUG 52947; E. cloacae CCUG52947) was 1 µg/mL, the MIC (E. cloacae F230; E. cloacae F230) was 0.5 µg/mL and the MIC (E. cloacae F231; E. cloacae F231) was 0.5 µg/mL. It also gave an MIC (E. cloacae F232; E. cloacae F232) of 0.5 µg/mL, an MIC (E. coli ATCC 25922; E. coli ATCC25922) of 1 µg/mL and an MIC (E. coli CCUG 41424; E. coli CCUG41424) of 1 µg/mL. It also gave an MIC (E. coli CCUG 41425; E. coli CCUG41425) of 0.5 µg/mL, an MIC (E. coli CCUG 41427; E. coli CCUG41427) of 1 µg/mL and an MIC (E. coli CCUG 41429; E. coli CCUG41429) of 1 µg/mL. The MIC (E. coli CCUG 41432; E. coli CCUG41432) was 1 µg/mL, the MIC (E. coli F10; E. coli F10) was 0.5 µg/mL and the MIC (E. coli F19; E. coli F19) was 1 µg/mL. The MIC (E. coli F8; E. coli F8) was 1 µg/mL, the MIC (E. coli F9; E. coli F9) was 0.5 µg/mL and the MIC (E. coli IH3080; E. coli IH3080) was 0.5 µg/mL. It also gave an MIC (E. coli NCTC 13351; E. coli NCTC13351) of 0.5 µg/mL, an MIC (E. coli NCTC 13352; E. coli NCTC 13352) of 0.25 µg/mL and an MIC (E. coli NCTC 13353; E. coli NCTC13353) of 1 µg/mL. For the same compound, the MIC (K. oxytoca ATCC 13182; K. oxytoca ATCC13182) was 0.5 µg/mL, the MIC (K. oxytoca CCUG 51683; K. oxytoca CCUG51683) was 0.5 µg/mL and the MIC (K. pneumoniae ATCC 13883; K. pneumoniae ATCC13883) was 32(−8) μg/ml. It also gave an MIC (K. pneumoniae CCUG 45421; K. pneumoniae CCUG45421) of 1 µg/mL, an MIC (K. pneumoniae F136; K. pneumoniae F136) of 0.5 µg/mL and an MIC (K. pneumoniae F144) of 1 µg/mL. It also gave an MIC (K. pneumoniae F145; K. pneumoniae F145) of 0.5 µg/mL, an MIC (P. aeruginosa ATCC 27853; P. aeruginosa ATCC27853) of 1 µg/mL and an MIC (P. aeruginosa F58; P. aeruginosa F58) of 0.5 µg/mL. The MIC (S. aureus ATCC 25923; S. aureus ATCC 25923) was greater than 32 µg/mL, the MIC ([1]; S. maltophilia ATCC17444) was 1 µg/mL and the MIC (S. marcescens ATCC 8100; S. marcescens ATCC8100) was greater than 32 µg/mL.
